# Source: PMC9490060, “Synthesis and evaluation of anticancer activity of quillaic acid derivatives: A cell cycle arrest and apoptosis inducer through NF-κB and MAPK pathways” (Frontiers in Chemistry, 2022)
# Columns and labels:
# [1] = tested on: SW620 (human colorectal cancer cell line); experiment: MTT anti-proliferative assay, SW620; type: cell-based; details: means ± SD, n = 3
# [2] = tested on: BEL7402 (human hepatocellular carcinoma cell line); experiment: MTT anti-proliferative assay, BEL7402; type: cell-based; details: means ± SD, n = 3
# Summary of the method: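 Cells seeded at 1 × 10^4–1.2 × 10^4 per well were allowed to adhere 24 h, then exposed 48 h at 37 °C, 5% CO2 to compound at 1.25, 2.5, 5 and 10 μM (DMSO ≤0.1%). MCF-7 and HepG2 were grown in DMEM, HCT116 and BEL7402 in RPMI 1640, each with 10% FBS. MTT (final 2 mg/ml) was added for 4 h; formazan was dissolved in DMSO and read at 492 nm.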
# [3] = tested on: L02 (human normal liver cells); experiment: Cytotoxicity against normal cell line L02; type: cell-based
# Source text: The lack of selectivity between normal and cancer cells is one of the main limitations of antitumor drugs ([Dy and Adjei, 2013]). Therefore, we evaluated the cytotoxicity of compounds B2, and E in normal cell lines L02 (human normal liver cells) to determine the selectivity index (ratio of cytotoxicity in L02 cells compared to that in cancer cells). […] Therefore, this compound was chosen for further biological studies.
# The propidium iodide (PI) and Annexin V-FITC apoptosis detection kit were purchased from Invitrogen (Eugene, OR, United States). 3-(4,5-Dimethylthiazol-2-yl)-2,5-diphenyl-2H-tetrazolium bromide (MTT) was purchased from Sigma-Aldrich Co. (St. Louis, MO, United States). All human cell lines were used in this study, colorectal cancer cell HCT116, colorectal cancer cell SW620, breast cancer cell MCF-7, liver hepatocellular carcinoma cell BEL7402, liver hepatocellular carcinoma HepG2 and normal liver cell L02 were initially purchased from American Type Culture Collection (ATCC, Manassas, VA, United States). RPMI-1640 media, Dulbecco’s modified Eagle’s medium (DMEM), and foetal bovine serum (FBS) were provided from Gibco Company (Grand Island, NY, United States). Cell line MCF-7 and HepG2 were cultivated in DMEM containing 10% (v/v) heat-inactivated FBS, 100 units/ml penicillin and […] streptomycin (Grand Island, NY, United States). Cell lines HCT116, BEL7402, SW620, and L02 were cultivated in RPMI 1640 medium containing 10% (v/v) heat-inactivated FBS, 100 units/ml penicillin, and […] streptomycin. The cells were incubated at 37°C under a 5% CO2 and 90% relative humidity (RH) atmosphere.
# Stock solutions were prepared by diluting target compounds in DMSO at concentrations (1.25, 2.5, 5, and 10 mM). The stock solution was then diluted (1.25, 2.5, 5, and 10 μM) with culture medium, and the concentration of DMSO was controlled not to exceed 0.1%.
# Place the cells in a 96-well plate at an appropriate density to ensure exponential growth (1 × 10^4–1.2×10^4 cells per well) throughout the experiment, and then allow the cells to adhere for 24 h. The cells were then treated with continuous concentrations of each compound (1.25, 2.5, 5, and 10 μM) for 48 h. After 48 h of incubation, 15 μl of MTT solution was added to each well, and the final concentration was 2 mg/ml. Then incubate for another 4 h. After incubation, remove the MTT solution and add […] of DMSO to each well for staining. Shake vigorously for 10 min at room temperature to ensure complete dissolution. The optical density (OD) was read on a microplate reader (ELx 800, BioTek, Highland Park, Winooski, VT, United States) with a wavelength of 492 nm, and then the data was analyzed.
# [4] = tested on: Bcl-2; experiment: Western blot, Bcl-2 expression; type: cell-based, human; details: HCT116, 10 μM, 24 h
# Protocol: The Bcl-2 protein family (including the anti-apoptotic protein Bcl-2 and the pro-apoptotic protein Bax) is a group of key apoptotic proteins that play an important role in the regulation of apoptosis ([Han et al., 2013]; [Zhang and Saghatelian, 2013]; [Zheng et al., 2021]). HCT116 cells were treated with different concentrations (2.5, 5, and 10 μM) of E to detect the expression of Bax and Bcl-2 proteins.
# (§1) FIGURE 7 Effect of compound E on the levels of Bax, and Bcl-2 in HCT116 cells. Cells were pretreated with the various concentrations of compound E (2.5, 5 and 10 μM) for 24 h. The expression of Bax, and Bcl-2 were analyzed by Western blot. ***p < 0.001, **p < 0.01, *p < 0.05 vs. control group. The error bars represent the mean ± SD for three independent experiments.
# HCT116 cells were cultured with different concentrations of compound E for 24 h. Then, the floating cells were collected and washed twice with ice-cold PBS. Add cold RIPA buffer. After the cells were lysed on ice for 20 min, the lysate was centrifuged at 12,000 rpm for 15 min at 4°C. The BCA method determines the protein concentration. Separated by SDS/PAGE electrophoresis and transferred to a nitrocellulose filter membrane for Western blot analysis. The membrane was blocked with PBS containing 5% skim milk at room temperature for 2 h. […] The protein is detected by electrochemiluminescence (Bio-Rad, CA, United State).
# [5] = tested on: p38; experiment: Western blot, MAPK signaling pathway: p38; type: cell-based, human; details: HCT116, 10 μM, 24 h
# Source text: Extracellular signal-regulated kinases are the most closely related MAPK. MAPK, a family of serine/threonine protein kinases, is also an important transmitter of signaling from the cell surface to the nucleus, and it is involved in the regulation of many physiological processes, including apoptosis ([Bian et al., 2021]). The MAPK pathway has been implicated in regulating tumor angiogenesis, proliferation, metastasis and invasion ([Ko et al., 2017]). MAPK family is mainly composed of ERK, p38 and JNK subfamily.
# as §1, with “9” for “7”, “[…]” for “the levels of Bax, and Bcl-2”, “phospho-ERK, ERK, phospho-JNK, JNK, phospho-p38, p38” for “Bax, and Bcl-2”
# HCT116 cells were cultured with different concentrations of compound E for 24 h. Then, the floating cells were collected and washed twice with ice-cold PBS. Add cold RIPA buffer. After the cells were lysed on ice for 20 min, the lysate was centrifuged at 12,000 rpm for 15 min at 4°C. The BCA method determines the protein concentration. […] The protein is detected by electrochemiluminescence (Bio-Rad, CA, United State).
smiles,measurement,setting,value
"CC1(C)CC[C@]2(C(=O)OCCn3nnnc3-c3ccccc3)[C@H](O)C[C@]3(C)C(=CC[C@@H]4[C@@]5(C)CC[C@H](O)[C@@](C)(C=O)[C@@H]5CC[C@]43C)[C@@H]2C1 [Compound E, 2-(5-phenyl-1H-tetrazol-1-yl)ethyl (4aR,5R,6aS,6bR,8aR,9S,10S,12aR,12bR,14bS)-9-formyl-5,10-dihydroxy-2,2,6a,6b,9,12a-hexamethyl-1,3,4,5,6,6a,6b,7,8,8a,9,10,11,12,12a,12b,13,14b-octadecahydropicene-4a (2H)-carboxylate]",IC50 values SW620,[1]; 48 h incubation,strong activity
same,IC50,"[1]; Homo sapiens, SW-620, 48 h incubation",4.69 ± 1.1 µM
same,IC50 values BEL7402,[2]; 48 h incubation,strong activity
same,IC50,"[2]; Homo sapiens, Bel-7402, 48 h incubation",6.89 ± 1.69 µM
same,IC50,"[3]; Homo sapiens, normal cell line L02",> 10 µM
same,Selectivity index BEL7402,[3]; IC50 on normal cells (L02)/IC50 on tumour cells (BEL7402),> 1.45
same,Selectivity index HCT116,[3]; IC50 on normal cells (L02)/IC50 on tumour cells (HCT116),> 4.06
same,Selectivity index HepG2,[3]; IC50 on normal cells (L02)/IC50 on tumour cells (HepG2),> 1.12
same,Selectivity index SW620,[3]; IC50 on normal cells (L02)/IC50 on tumour cells (SW620),> 2.13
same,level of Bcl-2,[4],decreased
same,phosphorylation level of p38,[5],down-regulated
same,melting point,,196 to 198 °C
